The source made the active and inactive calls. The calls are words filed in the database; no cut-off is given here.
Columns and labels:
[1] = tested on: Hepatocyte; test: Downregulation of TGF-beta1 and miR-190a-5p inhibitor induced HGF mRNA expression in C57/B6J mouse primary hepatocytes at 10 uM by qRT-PCR analysis; type: functional, cell-based
[2] = tested on: Hepatocyte; test: Induction of apoptosis in TGF-beta1-stimulated C57/B6J mouse primary hepatocytes assessed as reversal of miR-190a-5p inhibitor induced increase in Bcl-2 expression at 10 uM by Western blot analysis; type: functional, cell-based
[3] = tested on: Hepatocyte; test: Inhibition of TGF-beta1 induced apoptosis in C57/B6J mouse primary hepatocytes assessed as early apoptotic cells at 10 uM in presence of miR-190a-5p inhibitor by Annexin-V-FITC-H and PI staining based flow cytometry analysis (reference value: 18.90 %); type: functional; parameters: scale not given: the % may be the effect or the level left
[4] = tested on: Hepatocyte; test: Inhibition of TGF-beta1 induced apoptosis in C57/B6J mouse primary hepatocytes assessed as live cells at 10 uM in presence of miR-190a-5p inhibitor by Annexin-V-FITC-H and PI staining based flow cytometry analysis (reference value: 61.65 %); type: functional; parameters: scale not given: the % may be the effect or the level left
[5] = tested on: Hepatocyte; test: Induction of apoptosis in TGF-beta1-stimulated C57/B6J mouse primary hepatocytes assessed as reversal of miR-190a-5p inhibitor induced decrease in cleaved-caspase 3 expression at 10 uM by Western blot analysis; type: functional, cell-based
[6] = tested on: Hepatocyte; test: Downregulation of TGF-beta1 and miR-190a-5p inhibitor induced HGF protein expression C57/B6J mouse primary hepatocytes at 10 uM by Western blot analysis; type: functional, cell-based
[7] = tested on: Hepatocyte; test: Inhibition of TGF-beta1 induced apoptosis in C57/B6J mouse primary hepatocytes assessed as dead cells at 10 uM in presence of miR-190a-5p inhibitor by Annexin-V-FITC-H and PI staining based flow cytometry analysis (reference value: 5.49 %); type: functional; parameters: scale not given: the % may be the effect or the level left
[8] = tested on: Hepatocyte; test: Inhibition of TGF-beta1 induced apoptosis in C57/B6J mouse primary hepatocytes assessed as late apoptotic cells at 10 uM in presence of miR-190a-5p inhibitor by Annexin-V-FITC-H and PI staining based flow cytometry analysis (reference value: 13.96 %); type: functional; parameters: scale not given: the % may be the effect or the level left
[9] = tested on: Hepatocyte; test: Inhibition of TGF-beta1 induced apoptosis in C57/B6J mouse primary hepatocytes assessed as decrease in cleaved-caspase-3 expression at 10 to 50 uM by Western blot analysis; type: functional, cell-based; conditions: dose 10-50 µM
[10] = tested on: Hepatocyte; test: Inhibition of TGF-beta1 induced apoptosis in C57/B6J mouse primary hepatocytes assessed as late apoptotic cells at 25 uM by Annexin-V-FITC-H and PI staining based flow cytometry analysis (reference value: 12.12 %); type: functional; parameters: scale not given: the % may be the effect or the level left
[11] = tested on: Hepatocyte; test: Inhibition of TGF-beta1 induced apoptosis in C57/B6J mouse primary hepatocytes assessed as early apoptotic cells at 50 uM by Annexin-V-FITC-H and PI staining based flow cytometry analysis (reference value: 18.71 %); type: functional; parameters: scale not given: the % may be the effect or the level left
[12] = tested on: Mus musculus; test: Antifibrotic activity in CCL-4 induced liver fibrosis C57/B6J mouse model assessed as reduction in serum AST level at 100 mg/kg/day, ip measured after 72 hrs post last dose by ELISA; type: functional, organism-based
[13] = tested on: Hepatocyte; test: Inhibition of TGF-beta1 induced apoptosis in C57/B6J mouse primary hepatocytes assessed as increase in Bcl-2 expression at 10 to 50 uM by Western blot analysis; type: functional, cell-based; conditions: dose 10-50 µM
[14] = tested on: Hepatocyte; test: Inhibition of TGF-beta1 induced apoptosis in C57/B6J mouse primary hepatocytes assessed as late apoptotic cells in presence of miR-190a-5p mimic by Annexin-V-FITC-H and PI staining based flow cytometry analysis (reference value: 12.03 %); type: functional; parameters: scale not given: the % may be the effect or the level left
[15] = tested on: Mus musculus; test: Antifibrotic activity in CCL-4 induced liver fibrosis C57/B6J mouse model assessed as reduction in serum ALT level at 100 mg/kg/day, ip measured after 72 hrs post last dose by ELISA; type: functional, organism-based
[16] = tested on: Mus musculus; test: Antifibrotic activity in CCL-4 induced liver fibrosis C57/B6J mouse model assessed as reduction in miR-190a-5p expression in liver at 100 mg/kg/day, ip measured after 72 hrs post last dose by qRT-PCR analysis; type: functional, organism-based
[17] = tested on: Hepatocyte; test: Inhibition of TGF-beta1 induced apoptosis in C57/B6J mouse primary hepatocytes assessed as late apoptotic cells at 50 uM by Annexin-V-FITC-H and PI staining based flow cytometry analysis (reference value: 12.12 %); type: functional; parameters: scale not given: the % may be the effect or the level left
[18] = tested on: Mus musculus; test: Antifibrotic activity in CCL-4 induced liver fibrosis C57/B6J mouse model assessed as reduction in disorganized and interlaced fibers at 100 mg/kg/day, ip measured after 72 hrs post last dose by HE/Sirus red/TUNEL staining based analysis; type: functional, organism-based
[19] = tested on: Hepatocyte; test: Inhibition of TGF-beta1 induced apoptosis in C57/B6J mouse primary hepatocytes assessed as live cells by Annexin-V-FITC-H and PI staining based flow cytometry analysis (reference value: 64.40 %); type: functional; parameters: scale not given: the % may be the effect or the level left
[20] = tested on: Mus musculus; test: Antifibrotic activity in CCL-4 induced liver fibrosis C57/B6J mouse model assessed as reduction in COL1A1 mRNA expression at 100 mg/kg/day, ip measured after 72 hrs post last dose by qRT-PCR analysis; type: functional, organism-based
[21] = tested on: Hepatocyte; test: Inhibition of TGF-beta1 induced apoptosis in C57/B6J mouse primary hepatocytes assessed as early apoptotic cells in presence of miR-190a-5p mimic by Annexin-V-FITC-H and PI staining based flow cytometry analysis (reference value: 19.89 %); type: functional; parameters: scale not given: the % may be the effect or the level left
[22] = tested on: Hepatocyte; test: Inhibition of TGF-beta1 induced apoptosis in C57/B6J mouse primary hepatocytes assessed as late apoptotic cells by Annexin-V-FITC-H and PI staining based flow cytometry analysis (reference value: 12.03 %); type: functional; parameters: scale not given: the % may be the effect or the level left
[23] = tested on: Hepatocyte; test: Inhibition of TGF-beta1 induced apoptosis in C57/B6J mouse primary hepatocytes assessed as live cells at 25 uM by Annexin-V-FITC-H and PI staining based flow cytometry analysis (reference value: 66.08 %); type: functional; parameters: scale not given: the % may be the effect or the level left
[24] = tested on: Hepatocyte; test: Inhibition of TGF-beta1 induced apoptosis in C57/B6J mouse primary hepatocytes assessed as late apoptotic cells at 10 uM by Annexin-V-FITC-H and PI staining based flow cytometry analysis (reference value: 12.12 %); type: functional; parameters: scale not given: the % may be the effect or the level left
[25] = tested on: Hepatocyte; test: Inhibition of TGF-beta1 induced apoptosis in C57/B6J mouse primary hepatocytes assessed as live cells at 50 uM by Annexin-V-FITC-H and PI staining based flow cytometry analysis (reference value: 66.08 %); type: functional; parameters: scale not given: the % may be the effect or the level left
[26] = tested on: Hepatocyte; test: Inhibition of TGF-beta1 induced apoptosis in C57/B6J mouse primary hepatocytes assessed as dead cells by Annexin-V-FITC-H and PI staining based flow cytometry analysis (reference value: 3.68 %); type: functional; parameters: scale not given: the % may be the effect or the level left
[27] = tested on: HepG2; test: Downregulation of miR-190a-5p expression in TGF-beta induced human HepG2 cells at 10 to 50 uM incubated for 4 hrs by qRT-PCR analysis; type: functional, cell-based; conditions: dose 10-50 µM
[28] = tested on: Hepatocyte; test: Inhibition of TGF-beta1 induced apoptosis in C57/B6J mouse primary hepatocytes assessed as live cells at 10 uM by Annexin-V-FITC-H and PI staining based flow cytometry analysis (reference value: 66.08 %); type: functional; parameters: scale not given: the % may be the effect or the level left
[29] = tested on: Mus musculus; test: Antifibrotic activity in CCL-4 induced liver fibrosis C57/B6J mouse model assessed as increase in HGF expression at 100 mg/kg/day, ip measured after 72 hrs post last dose by Western blot analysis; type: functional, organism-based
[30] = tested on: Hepatocyte; test: Inhibition of TGF-beta1 induced apoptosis in C57/B6J mouse primary hepatocytes assessed as dead cells in presence of miR-190a-5p mimic by Annexin-V-FITC-H and PI staining based flow cytometry analysis (reference value: 3.68 %); type: functional; parameters: scale not given: the % may be the effect or the level left
[31] = tested on: Hepatocyte; test: Inhibition of TGF-beta1 induced apoptosis in C57/B6J mouse primary hepatocytes assessed as early apoptotic cells by Annexin-V-FITC-H and PI staining based flow cytometry analysis (reference value: 19.89 %); type: functional; parameters: scale not given: the % may be the effect or the level left
[32] = tested on: Hepatocyte; test: Inhibition of TGF-beta1 induced apoptosis in C57/B6J mouse primary hepatocytes assessed as dead cells at 25 uM by Annexin-V-FITC-H and PI staining based flow cytometry analysis (reference value: 3.09 %); type: functional; parameters: scale not given: the % may be the effect or the level left
[33] = tested on: Mus musculus; test: Antifibrotic activity in CCL-4 induced liver fibrosis C57/B6J mouse model assessed as increase in albumin level in serum at 100 mg/kg/day, ip measured after 72 hrs post last dose by ELISA; type: functional, organism-based
[34] = tested on: Mus musculus; test: Antifibrotic activity in CCL-4 induced liver fibrosis C57/B6J mouse model assessed as reduction in hydroxyproline level in liver at 100 mg/kg/day, ip measured after 72 hrs post last dose; type: functional, organism-based
[35] = tested on: Hepatocyte; test: Downregulation of miR-190a-5p expression in TGF-beta induced C57/B6J mouse primary hepatocytes at 10 to 50 uM incubated for 4 hrs by qRT-PCR analysis; type: functional, cell-based; conditions: dose 10-50 µM
[36] = tested on: Hepatocyte; test: Inhibition of TGF-beta1 induced apoptosis in C57/B6J mouse primary hepatocytes assessed as dead cells at 10 uM by Annexin-V-FITC-H and PI staining based flow cytometry analysis (reference value: 3.09 %); type: functional; parameters: scale not given: the % may be the effect or the level left
[37] = tested on: Hepatocyte; test: Inhibition of TGF-beta1 induced apoptosis in C57/B6J mouse primary hepatocytes assessed as early apoptotic cells at 25 uM by Annexin-V-FITC-H and PI staining based flow cytometry analysis (reference value: 18.71 %); type: functional; parameters: scale not given: the % may be the effect or the level left
[38] = tested on: Mus musculus; test: Inhibition of apoptosis in CCL-4 induced liver fibrosis C57/B6J mouse model at 100 mg/kg/day, ip measured after 72 hrs post last dose; type: functional, organism-based
[39] = tested on: Hepatocyte; test: Inhibition of TGF-beta1 induced apoptosis in C57/B6J mouse primary hepatocytes assessed as early apoptotic cells at 10 uM by Annexin-V-FITC-H and PI staining based flow cytometry analysis (reference value: 18.71 %); type: functional; parameters: scale not given: the % may be the effect or the level left
[40] = tested on: Hepatocyte; test: Inhibition of TGF-beta1 induced apoptosis in C57/B6J mouse primary hepatocytes assessed as dead cells at 50 uM by Annexin-V-FITC-H and PI staining based flow cytometry analysis (reference value: 3.09 %); type: functional; parameters: scale not given: the % may be the effect or the level left
[41] = tested on: Hepatocyte; test: Inhibition of TGF-beta1 induced apoptosis in C57/B6J mouse primary hepatocytes assessed as live cells in presence of miR-190a-5p mimic by Annexin-V-FITC-H and PI staining based flow cytometry analysis (reference value: 64.40 %); type: functional; parameters: scale not given: the % may be the effect or the level left

CC1CN(CC2CCN(Cc3ccccc3)CC2)C(=O)N(c2cccc(C(=N)N)c2)C1.O=C(O)C(F)(F)F (stereo unspecified)
Activity [1]: Active | Activity [2]: Active | Activity [3]: 18.6% | Activity [4]: 64.46% | Activity [5]: Active | Activity [6]: Active | Activity [7]: 3.35% | Activity [8]: 13.59%

Oc1ccc(/C=C/c2cc(O)cc(O)c2)cc1 [RESVERATROL]
inhibition [9]: Active | Activity [10]: 9.96% | Activity [11]: 7.99% | Activity [12]: Active | inhibition [13]: Active | Activity [14]: 11.38% | Activity [15]: Active | Activity [16]: Active | Activity [17]: 6.54% | Activity [18]: Active | Activity [19]: 83.06% | Activity [20]: Active | Activity [21]: 17.41% | Activity [22]: 5.25% | Activity [23]: 75.96% | Activity [24]: 11.36% | Activity [25]: 84.53% | Activity [26]: 0.64% | Activity [27]: Active | Activity [28]: 69.83% | Activity [29]: Active | Activity [30]: 1.12% | Activity [31]: 10.05% | Activity [32]: 1.49% | Activity [33]: Active | Activity [34]: Active | Activity [35]: Active | Activity [36]: 2.44% | Activity [37]: 12.59% | inhibition [38]: Active | Activity [39]: 16.37% | Activity [40]: 0.95% | Activity [41]: 70.1%
